In patent publication US8822430B2 (Gilead Sciences, Inc., priority 2009, dated 2014):

Test system: HCV 1b RLuc cells (dicistronic genotype 1b Con1 replicon)
Assay: Renilla luciferase (RLuc)-based HCV replicon reporter assay
Assay type: cell-based, HCV genotype 1b
Conditions: Hepatitis C virus, 72 h, HCV 1b RLuc replicon, 72 hours; read-out: Activity (antiviral potency [EC50])
Method in brief: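 EC50 values were calculated by non-linear regression of Renilla luciferase signal from lysed cells after 72 h of compound exposure. Cells harboured a genotype 1b Con1 dicistronic replicon encoding RLuc. Compounds were serially diluted in DMSO from 10 mM stocks into culture media.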

| Structure (SMILES) | EC50 [nM] |
| --- | --- |
| COC(=O)N[C@H](C(=O)N[C@@H](CO)c1ncc(-c2ccc(-c3ccc(-c4cnc([C@@H]5CCCN5C(=O)[C@@H](NC(=O)OC)C(C)C)[nH]4)cc3)cc2)[nH]1)C(C)C | 0.0775 |
| COC(=O)N[C@H](C(=O)N1CCC[C@H]1c1ncc(-c2ccc(C#Cc3ccc(-c4cnc([C@@H]5CN(CC(F)(F)F)CCN5C(=O)[C@@H](NC(=O)OC)C(C)C)[nH]4)cc3)cc2)[nH]1)C(C)C | 1.51 |
| COC(=O)N[C@H](C(=O)N1CC2(CC2)C[C@H]1c1ncc(-c2ccc3cc(-c4ccc(-c5cnc([C@@H]6[C@H]7CC[C@H](C7)N6C(=O)[C@@H](NC(=O)OC)C(C)(C)OC)[nH]5)cc4)ccc3c2)[nH]1)C(C)C | 0.0145 |
| COC(=O)N[C@H](C(=O)N1CCC[C@H]1c1ncc(-c2ccc3cc(-c4ccc(-c5cnc([C@@H]6C[C@H](C#N)CN6C(=O)[C@@H](NC(=O)OC)C(C)C)[nH]5)cc4)ccc3c2)[nH]1)C(C)C | 0.0067 |
| COC(=O)N[C@@H](CCOCC(F)(F)F)C(=O)N1CCC[C@H]1c1ncc(-c2ccc(-c3ccc(-c4cnc([C@@H]5CCCN5C(=O)[C@@H](NC(=O)OC)C(C)C)[nH]4)cc3)cc2)[nH]1 | 0.0273 |
| COC(=O)N[C@H](C(=O)N1CC2(CC2)C[C@H]1c1ncc(-c2ccc3cc(-c4ccc(-c5cnc([C@@H]6SCCN6C(=O)[C@@H](NC(=O)OC)C(C)C)[nH]5)cc4)ccc3c2)[nH]1)C(C)C | 0.0192 |
| COC(=O)N[C@H](C(=O)N1CCC[C@H]1c1ncc(-c2ccc3cc(-c4ccc(-c5cnc([C@@H]6C[C@H](CN(C)C)CN6C(=O)[C@@H](NC(=O)OC)C(C)C)[nH]5)cc4)ccc3c2)[nH]1)C(C)C | 0.125 |
| COC(=O)N[C@H](C(=O)N1CCC[C@H]1c1ncc(-c2ccc(-c3ccc4cc(-c5cnc([C@@H]6CCCN6C(=O)[C@@H](NC(=O)OC)C(C)C)[nH]5)ccc4c3)cc2)[nH]1)c1ccc(F)cc1 | 0.043 |
| COC(=O)N[C@H](C(=O)N1CC2(C[C@H]1c1ncc(-c3ccc(-c4ccc(-c5cnc([C@@H]6CCCN6C(=O)[C@@H](NC(=O)OC)C6CCOCC6)[nH]5)cc4)cc3)[nH]1)OCCO2)C(C)C | 0.546 |
| COC(=O)N[C@H](C(=O)N1CCC[C@H]1c1ncc(-c2ccc3c4ccc(-c5cnc([C@@H]6CCCN6C(=O)[C@@H](NC(=O)OC)C(C)C)[nH]5)cc4[s+]([O-])c3c2)[nH]1)C(C)C | 0.0322 |
| COC(=O)N[C@H](C(=O)N1CCC[C@H]1c1ncc(C#Cc2ccc(-c3ccc(-c4cnc([C@@H]5CCCN5C(=O)[C@@H](NC(=O)OC)C(C)C)[nH]4)cc3)cc2)[nH]1)C(C)C | 0.0115 |
| COC(=O)N[C@H](C(=O)N1CCC[C@H]1c1ncc(-c2ccc(-c3ccc(-c4cnc([C@@H]5CN(S(C)(=O)=O)CN5C(=O)[C@@H](NC(=O)OC)C(C)C)[nH]4)cc3)cc2)[nH]1)C(C)C | 0.0383 |
| COC(=O)N[C@H](C(=O)N1CCC[C@H]1c1ncc(-c2ccc(-c3ccc4cc(-c5cnc([C@@H]6CCCN6C(=O)[C@@H](NC(=O)OC)C(C)C)[nH]5)ccc4c3)cc2)[nH]1)C(C)C | 0.0047 |
| COC(=O)N[C@H](C(=O)N1CCC[C@H]1c1ncc(-c2ccc(-c3ccc4cc(-c5cnc([C@@H]6CCCN6C(=O)[C@@H](NC(=O)OC)C6CCOCC6)[nH]5)ccc4c3)cc2)[nH]1)C1CCOCC1 | 0.0686 |
| COC(=O)N[C@H](C(=O)N1CCC[C@H]1c1ncc(-c2ccc3cc(-c4ccc(-c5cnc([C@@H]6CCCN6C(=O)[C@H](NC(=O)OC)c6ccccc6OC)[nH]5)cc4)ccc3c2)[nH]1)C(C)C | 0.0073 |
| CNC(=O)N1C[C@@H](c2ncc(-c3ccc(C#Cc4ccc(-c5cnc([C@@H]6CCCN6C(=O)[C@@H](NC(=O)OC)C(C)C)[nH]5)cc4)cc3)[nH]2)N(C(=O)[C@@H](NC(=O)OC)C(C)C)C1 | 0.245 |
| COC(=O)N[C@@H](CCOC(F)F)C(=O)N1CC2(CC2)C[C@H]1c1ncc(-c2ccc3cc(-c4ccc(-c5cnc([C@@H]6[C@H]7CC[C@H](C7)N6C(=O)[C@@H](NC(=O)OC)C(C)C)[nH]5)cc4)ccc3c2)[nH]1 | 0.0114 |
| COC(=O)N[C@H](C(=O)N1CCC[C@H]1c1ncc(-c2ccc(-c3ccc(-c4ccc5nc([C@@H]6CCCN6C(=O)[C@@H](NC(=O)OC)C(C)C)[nH]c5c4)cc3)cc2)[nH]1)C(C)C | 0.0054 |
| COC(=O)N[C@H](C(=O)N1CCC[C@H]1c1ncc(-c2ccc(-c3ccc(-c4cnc([C@@H]5CCCN5C(=O)[C@@H](NC(=O)OC)C(C)C)[nH]4)s3)cc2)[nH]1)C(C)C | 0.0081 |
| COC(=O)N[C@H](C(=O)N1[C@@H]2CC[C@@H](C2)[C@H]1c1ncc(-c2ccc(-c3ccc4cc(-c5cnc([C@@H]6CC7(CC7)CN6C(=O)[C@H](NC(=O)OC)c6ccccc6)[nH]5)ccc4c3)cc2)[nH]1)C(C)C | 0.0394 |
| CC[C@H](NC(=O)OC)C(=O)N1[C@@H]2CC[C@@H](C2)[C@H]1c1ncc(-c2ccc(-c3ccc4cc(-c5cnc([C@@H]6CC7(CC7)CN6C(=O)[C@@H](NC(=O)OC)C(C)C)[nH]5)ccc4c3)cc2)[nH]1 | 0.0086 |

| Structure (SMILES) | EC50 [nM] |
| --- | --- |
| COC(=O)N[C@H](C(=O)N1CCC[C@H]1c1ncc(-c2ccc(-c3ccc(-c4cnc([C@@H]5CC6(CCC6)ON5C(=O)[C@@H](NC(=O)OC)C(C)C)[nH]4)cc3)cc2)[nH]1)C(C)C | 0.0083 |
| COC(=O)N[C@H](C(=O)N1CCC[C@H]1c1ncc(-c2ccc(C#Cc3ccc(-c4cnc([C@@H]5COCCN5C(=O)[C@@H](NC(=O)OC)C(C)C)[nH]4)cc3)cc2)[nH]1)C(C)C | 0.0198 |
| COC(=O)N[C@H](C(=O)N1CCC[C@H]1c1ncc(-c2ccc3c(c2)COCc2cc(-c4cnc([C@@H]5[C@H]6CC[C@H](C6)N5C(=O)[C@@H](NC(=O)OC)C(C)C)[nH]4)ccc2-3)[nH]1)C(C)C | 0.0221 |
| COC(=O)N[C@H](C(=O)N1CC2(CC2)C[C@H]1c1ncc(-c2ccc(-c3ccc4cc(-c5cnc([C@@H]6C[C@H](C#N)CN6C(=O)[C@@H](NC(=O)OC)C(C)(C)C)[nH]5)ccc4c3)cc2)[nH]1)C(C)C | 0.0165 |
| COC(=O)N[C@H](C(=O)N1CCC[C@H]1c1ncc(-c2ccc(-c3ccc4cc(-c5cnc([C@@H]6C[C@H](C#N)CN6C(=O)[C@H](NC(=O)OC)c6ccccc6)[nH]5)ccc4c3)cc2)[nH]1)C(C)C | 0.0097 |
| COC(=O)N[C@H](C(=O)N1CCC[C@H]1c1ncc(-c2ccc(N3CCC(c4cnc([C@@H]5CCCN5C(=O)[C@@H](NC(=O)OC)C(C)C)[nH]4)CC3)cc2)[nH]1)C(C)C | 0.456 |
| COC(=O)N[C@H](C(=O)N1CCC[C@H]1c1ncc(-c2ccc3c(c2)COc2cc(-c4ccc5nc([C@@H]6[C@H]7CC[C@H](C7)N6C(=O)[C@@H](NC(=O)OC)C(C)C)[nH]c5c4)ccc2-3)[nH]1)C(C)C | 0.007 |
| COC(=O)N[C@H](C(=O)N1CCC[C@H]1c1ncc(-c2ccc3cc(-c4ccc(-c5cnc([C@@H]6CCCN6C(=O)[C@H](c6ccccc6)C(C)C)[nH]5)cc4)ccc3c2)[nH]1)C(C)C | 0.0112 |
| COC(=O)N[C@H](C(=O)N1CC2(CC2)C[C@H]1c1ncc(-c2ccc3c(c2)C(F)(F)c2cc(-c4ccc5nc([C@@H]6[C@H]7CC[C@H](C7)N6C(=O)[C@@H](NC(=O)OC)C(C)C)[nH]c5c4)ccc2-3)[nH]1)C(C)C | 0.0045 |
| COC(=O)N[C@H](C(=O)N1CCC[C@H]1c1ncc(-c2ccc3cc(-c4ccc5cc(-c6cnc([C@@H]7CCCN7C(=O)[C@@H](NC(=O)OC)C(C)C)[nH]6)ccc5c4)ccc3c2)[nH]1)C(C)C | 0.0239 |
| COC(=O)N[C@H](C(=O)N1C[C@@H](C#N)C[C@H]1c1ncc(-c2ccc(C#Cc3ccc(-c4cnc([C@@H]5CC(F)(F)CN5C(=O)[C@@H](NC(=O)OC)C(C)C)[nH]4)cc3)cc2)[nH]1)C(C)C | 0.018 |
| COC(=O)N[C@H](C(=O)N1CCC[C@H]1c1ncc(-c2ccc3cc(-c4ccc(-c5cnc([C@@H]6CCCN6C(=O)[C@@H](Cc6cn(C)c7ccccc67)NC(=O)OC)[nH]5)cc4)ccc3c2)[nH]1)C(C)C | 6.18 |
| COC(=O)N[C@H](C(=O)N1CC2(CC2)C[C@H]1c1ncc(-c2ccc3cc(-c4ccc(-c5cnc([C@@H]6[C@H]7CC[C@H](C7)N6C(=O)[C@H](NC(=O)OC)c6ccccc6)[nH]5)cc4)ccc3c2)[nH]1)C(C)C | 0.0261 |
| COC(=O)N[C@H](C(=O)N1CCC[C@H]1c1ncc(-c2ccc(-c3cnc([C@@H]4CCCN4C(=O)[C@@H](NC(=O)OC)C(C)C)[nH]3)cc2)[nH]1)C(C)C | 1.22 |
| COC(=O)N[C@H](C(=O)N1CCC[C@H]1c1nc(-c2cccc(Oc3ccc(-c4cnc([C@@H]5CCCN5C(=O)[C@@H](NC(=O)OC)C(C)C)[nH]4)cc3)c2)c[nH]1)C(C)C | 0.0539 |
| COC(=O)N[C@H](C(=O)N1CCC[C@H]1c1ncc(-c2ccc3c(c2)COc2cc(-c4cnc([C@@H]5CCCN5C(=O)[C@@H](NC(=O)OC)C(C)C)[nH]4)ccc2-3)[nH]1)C(C)C | 0.0131 |
| COC(=O)N[C@H](C(=O)N1CCC[C@H]1c1ncc(-c2ccc(-c3ccc(-c4cnc(CN5CCC[C@H](NC(=O)OC(C)(C)C)C5=O)[nH]4)cc3)cc2)[nH]1)C(C)C | 0.058 |
| COC(=O)N[C@H](C(=O)N1CCC[C@H]1c1ncc(-c2ccc(-c3ccc(-c4ccc5nc([C@@H]6CCN6C(=O)[C@@H](NC(=O)OC)C(C)C)[nH]c5c4)cc3)cc2)[nH]1)C(C)C | 0.0282 |
| COC(=O)N[C@H](C(=O)N1CCC[C@H]1c1nc2ccc(-c3cc4cc5sc(-c6ccc7nc([C@@H]8CCCN8C(=O)[C@@H](NC(=O)OC)C(C)C)[nH]c7c6)cc5cc4s3)cc2[nH]1)C(C)C | 0.014 |
| COC(=O)N[C@H](C(=O)N1CCC[C@H]1c1ncc(-c2ccc3c(c2)sc2cc(-c4cnc([C@@H]5CCCN5C(=O)[C@@H](NC(=O)OC)C(C)C)[nH]4)ccc23)[nH]1)C(C)C | 0.0074 |
| COC(=O)N[C@H](C(=O)N1CCC[C@H]1c1ncc(-c2ccc3c(c2)oc2cc(-c4cnc([C@@H]5CCCN5C(=O)[C@@H](NC(=O)OC)C(C)C)[nH]4)ccc23)[nH]1)C(C)C | 0.0052 |

Same assay, conditions: Hepatitis C virus, GETYPE1B, 72 h, HCV 1b RLuc replicon, 72 hours; read-out: Activity (antiviral potency [EC50])

| Structure (SMILES) | EC50 [nM] |
| --- | --- |
| COC(=O)N[C@H](C(=O)N1CCC[C@H]1c1ncc(-c2ccc3cc(-c4cnc([C@@H]5CCCN5C(=O)[C@@H](NC(=O)OC)C(C)C)[nH]4)ccc3c2)[nH]1)C(C)C | 0.0511 |
